The source of these data is patent US20020061514A1, “Assay for identifying modulators of chondrogenesis” (priority 2000, published 2002).

Assay type in all cases: cell-based, mouse
For one assay, the system named is limb mesenchymal cells. Kind of assay: Alcian blue staining of cartilage nodules in primary limb mesenchymal cultures. To be noted: 10 ng/ml, 2 and 4 days, vs untreated cultures. On the procedure:
(§1) Limb mesenchymal cells were harvested from embryonic age 11.25-11.75 mouse embryos as previously described (19). To establish proximal or distal cultures the proximal half of each limb bud was separated from the distal half, and each pool of limb fragments was processed separately. The cells were resuspended at a density of 1.5−2×10^7 cells/ml. For transfection purposes, cells were mixed with a DNA/FuGene6 mixture in a 2:1 ratio. FuGene6-DNA mixtures were prepared according to the manufacturer's instructions (Roche Biomolecular). Briefly, 1 μg of reporter, 1 μg of expression vector and 0.05 μg of pRLSV40 (Promega) were mixed for a total of ˜2 μg DNA in 100 μl of media and FuGene6. Fifty microlitres of the DNA mixture was transferred into a sterile 1.5 ml eppendorf tube, followed by 100 μl of cells. Cells were gently triturated and 10 μl was used to seed a single well of a 24-well culture dish. After 1.5 hrs in a humidified CO2 incubator, 1 ml of media containing compounds of interest was added to each well and was subsequently replaced 24 hrs following transfection.

Assay [1] deals with pGL3(4X48) Sox9 responsive reporter gene. The assay is described as follows: pGL3(4X48) luciferase reporter gene activity in transiently transfected primary limb mesenchymal cultures. To be noted: for normalized RLU (pGL3(4X48) reporter gene activity): RLU values normalized to control reporter activity.
Text: (§2) To increase reporter gene sensitivity, the Sox9 responsive reporter gene from 4X48-p89 luciferase (14) was subcloned into pGL3-basic (Promega). A fragment containing the reiterated (4 X 48) Sox9 binding sequence upstream of the mouse col II minimal promoter (−89 to +13) was liberated from 4X48-p89 plasmid by digestion with Bam HI and Hind III. This fragment was subcloned into the Bgl II and […] sites of pGL3-basic (Promega) to generate pGL3(4X48). To generate an EGFP-based col II reporter, the luciferase gene within pGL3(4X48) was replaced with EGFP-N1 (Clontech). For expression of genes in primary cultures a modified version of pSG5 (Stratagene), pSG5HS, was used which contains two additional restriction endonuclease sites, Hind III and Spe I. The myogenin promoter-luciferase construct was made by subcloning a 1.14 kB fragment of the myogenin promoter (containing the region from pGZ1092) from plasmid pGBB into pGL3-basic. The cardiac actin promoter-luciferase vector was generated by subcloning a fragment of the cardiac actin promoter from −440 to +6 into pGL3-basic.
as §1
Analysis of reporter gene activity using the Dual Luciferase Assay System was done following the manufacturer's instructions (Promega). Briefly, ˜48 hrs post-transfection, cells were washed once with PBS and lysed in 100 μl of Passive Lysis Buffer for 20 min. Firefly and renilla luciferase activities were determined using 40 μl of lysate in a 96-well plate reading luminometer (Molecular Devices).
A general note: A reporter such as luciferase makes a cellular process visible.

Assay [2] relates to pGL3-4X48-EGFP reporter (Sox9 activity). The assay is described as follows: pGL3(4X48)-EGFP reporter in primary limb mesenchymal cultures. Particulars: 10 ng/ml, 64 hours post-transfection, vs untreated control cultures.
Text: as §2
Limb mesenchymal cells were harvested from embryonic age 11.25-11.75 mouse embryos as previously described (19). To establish proximal or distal cultures the proximal half of each limb bud was separated from the distal half, and each pool of limb fragments was processed separately. […]

As for “BMP-4: bone morphogenetic protein added to cultures at 10 ng/ml”, the “cartilage nodule number (alcian blue)” value in the assay on limb mesenchymal cells was “dramatic increase in nodule number”. In addition, the “normalized RLU (pGL3(4X48) reporter gene activity)” value (from here on “normalized RLU”) in assay [1] (protein added at 10 ng/ml) was 4.2. Also, the “increase in reporter gene activity” value in assay [1] (treatment of reporter gene-transfected cells, 10 ng/ml (FIG. 3H)) is roughly 4.5 fold. For the same molecule, the “number of EGFP-expressing (fluorescing) cells” value in assay [2] was “enhanced”.

On to Wnt3a, for which the “normalized RLU” value in assay [1] (co-transfected expression construct) is reported as 0.5.

B1: Noggin: BMP pathway protein added at 100 ng/ml (protein, UniProt Q13253 28-232, looked up)
Noggin: QHYLHIRPAPSDNLPLVDLIEHPDPIFDPKEKDLNETLLRSLLGGHYDPGFMATSPPEDRPGGGGGAAGGAEDLAELDQLLRQRPSGAMPSEIKGLEFSEGLAQGKKQRLSKKLRRKLQMWLWSQTFCPVLYAWNDLGSRFWPRYVKVGSCFSKRSCSVPEGMVCKPSKSVHLTVLRWRCQRRGGQRCGWIPIQYPIISECKCSC
In the case of B1, the “normalized RLU” value in assay [1] (protein added at 100 ng/ml) turned out to be 0.3.
